Data as given in ChEMBL document CHEMBL4507272 (2021).

Key:
[1] = biological target: Mitogen-activated protein kinase 14 (Homo sapiens) (UniProt Q16539); conditions: Compound concentration 1000.0 nM
[2] = biological target: Serine/threonine-protein kinase 4 (Homo sapiens) (UniProt Q13043); conditions: Compound concentration 1000.0 nM
[3] = biological target: Activin receptor type-2B (Homo sapiens) (UniProt Q13705); conditions: Compound concentration 1000.0 nM
[4] = biological target: Serine/threonine-protein kinase 17B (Homo sapiens) (UniProt O94768); conditions: Compound concentration 1000.0 nM
Sequence of Serine/threonine-protein kinase 17B (Homo sapiens) (O94768 whole entry): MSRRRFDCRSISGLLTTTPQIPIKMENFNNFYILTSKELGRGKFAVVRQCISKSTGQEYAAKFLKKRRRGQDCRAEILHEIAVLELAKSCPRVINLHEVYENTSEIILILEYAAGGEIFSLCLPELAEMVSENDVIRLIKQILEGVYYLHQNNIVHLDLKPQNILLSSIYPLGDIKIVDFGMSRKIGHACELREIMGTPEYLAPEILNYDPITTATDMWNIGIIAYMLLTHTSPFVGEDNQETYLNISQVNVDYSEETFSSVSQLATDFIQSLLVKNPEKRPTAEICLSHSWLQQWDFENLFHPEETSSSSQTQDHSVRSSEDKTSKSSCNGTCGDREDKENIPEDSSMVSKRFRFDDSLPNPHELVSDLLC

[5] = biological target: Serine/threonine-protein kinase PAK 6 (Homo sapiens) (UniProt Q9NQU5); conditions: Compound concentration 1000.0 nM
[6] = test system: Phosphatidylinositol 4,5-bisphosphate 3-kinase catalytic subunit alpha isoform (Homo sapiens), P42336 [C420R]; conditions: Compound concentration 1000.0 nM
[7] = biological target: Ephrin type-A receptor 5 (Homo sapiens) (UniProt P54756); conditions: Compound concentration 1000.0 nM
[8] = biological target: Calcium/calmodulin-dependent protein kinase type II subunit beta (Homo sapiens) (UniProt Q13554); conditions: Compound concentration 1000.0 nM
[9] = biological target: Receptor-type tyrosine-protein kinase FLT3 (Homo sapiens) (UniProt P36888); conditions: Compound concentration 1000.0 nM
Sequence of Receptor-type tyrosine-protein kinase FLT3 (Homo sapiens) (P36888 whole entry): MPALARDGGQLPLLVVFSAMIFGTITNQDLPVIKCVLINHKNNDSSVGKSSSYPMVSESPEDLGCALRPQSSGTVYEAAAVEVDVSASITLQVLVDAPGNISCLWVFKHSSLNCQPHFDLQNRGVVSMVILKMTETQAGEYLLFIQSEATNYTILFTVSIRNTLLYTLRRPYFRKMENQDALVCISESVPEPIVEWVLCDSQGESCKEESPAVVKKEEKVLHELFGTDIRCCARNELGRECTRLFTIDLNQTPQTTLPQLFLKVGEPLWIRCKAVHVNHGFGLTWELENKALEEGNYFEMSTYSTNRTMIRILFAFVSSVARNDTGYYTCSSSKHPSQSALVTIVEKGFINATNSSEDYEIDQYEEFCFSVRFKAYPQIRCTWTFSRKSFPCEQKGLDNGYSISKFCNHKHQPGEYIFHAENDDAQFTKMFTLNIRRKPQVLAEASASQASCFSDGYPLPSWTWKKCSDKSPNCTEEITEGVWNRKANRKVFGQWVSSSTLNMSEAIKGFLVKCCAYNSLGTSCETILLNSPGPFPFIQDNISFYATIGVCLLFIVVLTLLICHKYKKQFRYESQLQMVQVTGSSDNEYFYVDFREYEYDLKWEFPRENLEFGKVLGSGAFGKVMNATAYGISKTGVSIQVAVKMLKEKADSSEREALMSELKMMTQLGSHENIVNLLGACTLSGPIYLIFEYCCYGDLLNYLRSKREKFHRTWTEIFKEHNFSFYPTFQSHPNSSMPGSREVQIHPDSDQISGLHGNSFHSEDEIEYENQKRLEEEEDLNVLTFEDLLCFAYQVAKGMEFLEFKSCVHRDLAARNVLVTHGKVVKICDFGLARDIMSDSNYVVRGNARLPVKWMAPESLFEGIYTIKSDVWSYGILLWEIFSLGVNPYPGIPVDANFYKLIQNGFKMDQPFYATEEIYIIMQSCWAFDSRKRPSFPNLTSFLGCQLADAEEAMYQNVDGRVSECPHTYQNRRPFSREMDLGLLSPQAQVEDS

[10] = biological target: Serine/threonine-protein kinase WNK3 (Homo sapiens) (UniProt Q9BYP7); conditions: Compound concentration 1000.0 nM
Sequence of Serine/threonine-protein kinase WNK3 (Homo sapiens) (Q9BYP7 whole entry): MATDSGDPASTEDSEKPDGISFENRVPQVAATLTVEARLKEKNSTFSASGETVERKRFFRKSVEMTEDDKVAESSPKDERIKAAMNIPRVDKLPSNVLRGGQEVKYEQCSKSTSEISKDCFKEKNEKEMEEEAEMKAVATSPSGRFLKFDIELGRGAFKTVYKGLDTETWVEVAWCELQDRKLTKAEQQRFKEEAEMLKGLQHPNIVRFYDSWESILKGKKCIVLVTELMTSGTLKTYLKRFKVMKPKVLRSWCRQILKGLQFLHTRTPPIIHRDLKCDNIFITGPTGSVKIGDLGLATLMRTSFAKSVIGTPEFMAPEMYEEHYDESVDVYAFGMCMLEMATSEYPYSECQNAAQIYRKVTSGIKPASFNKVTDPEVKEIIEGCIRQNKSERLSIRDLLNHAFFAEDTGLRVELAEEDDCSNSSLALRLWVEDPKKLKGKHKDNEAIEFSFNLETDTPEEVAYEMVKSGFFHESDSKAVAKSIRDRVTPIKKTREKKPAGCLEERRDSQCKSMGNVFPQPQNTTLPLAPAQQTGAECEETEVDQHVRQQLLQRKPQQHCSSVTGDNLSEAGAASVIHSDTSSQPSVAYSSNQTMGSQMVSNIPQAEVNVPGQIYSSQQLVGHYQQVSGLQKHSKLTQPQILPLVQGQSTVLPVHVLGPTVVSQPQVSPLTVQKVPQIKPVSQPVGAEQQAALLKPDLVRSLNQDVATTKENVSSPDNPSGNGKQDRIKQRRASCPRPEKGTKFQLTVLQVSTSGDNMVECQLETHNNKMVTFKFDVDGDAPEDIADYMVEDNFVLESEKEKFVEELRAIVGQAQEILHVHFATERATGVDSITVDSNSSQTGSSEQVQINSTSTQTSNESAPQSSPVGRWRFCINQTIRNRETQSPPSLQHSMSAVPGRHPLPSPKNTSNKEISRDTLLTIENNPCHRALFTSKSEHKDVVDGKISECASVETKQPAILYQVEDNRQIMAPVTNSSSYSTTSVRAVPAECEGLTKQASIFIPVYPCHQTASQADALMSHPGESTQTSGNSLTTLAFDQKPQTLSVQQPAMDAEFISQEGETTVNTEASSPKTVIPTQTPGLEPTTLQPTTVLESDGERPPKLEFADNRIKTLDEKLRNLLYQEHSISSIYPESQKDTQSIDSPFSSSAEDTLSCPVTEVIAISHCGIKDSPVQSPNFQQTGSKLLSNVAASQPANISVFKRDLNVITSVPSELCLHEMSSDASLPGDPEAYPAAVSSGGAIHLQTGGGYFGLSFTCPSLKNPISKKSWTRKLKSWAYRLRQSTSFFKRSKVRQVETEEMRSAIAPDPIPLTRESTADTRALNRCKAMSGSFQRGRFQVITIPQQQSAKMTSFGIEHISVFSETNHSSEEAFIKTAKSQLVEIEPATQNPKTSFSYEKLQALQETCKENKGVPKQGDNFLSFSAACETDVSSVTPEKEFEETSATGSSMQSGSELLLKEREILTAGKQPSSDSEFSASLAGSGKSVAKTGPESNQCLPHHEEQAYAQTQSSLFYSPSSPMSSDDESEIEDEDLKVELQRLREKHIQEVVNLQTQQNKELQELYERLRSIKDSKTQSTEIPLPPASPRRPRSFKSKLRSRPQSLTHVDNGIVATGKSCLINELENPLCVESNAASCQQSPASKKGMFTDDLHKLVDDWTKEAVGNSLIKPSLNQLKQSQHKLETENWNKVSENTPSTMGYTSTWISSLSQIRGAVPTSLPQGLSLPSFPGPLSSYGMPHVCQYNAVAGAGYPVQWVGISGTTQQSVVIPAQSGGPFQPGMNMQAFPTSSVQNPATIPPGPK

[11] = biological target: Serine/threonine-protein kinase WNK4 (Homo sapiens) (UniProt Q96J92); conditions: Compound concentration 1000.0 nM
[12] = biological target: Ephrin type-A receptor 4 (Homo sapiens) (UniProt P54764); conditions: Compound concentration 1000.0 nM
[13] = test system: Tyrosine-protein kinase ABL1 (Homo sapiens), P00519 [T315I]; conditions: Compound concentration 1000.0 nM
[14] = biological target: Death-associated protein kinase 1 (Homo sapiens) (UniProt P53355); conditions: Compound concentration 1000.0 nM
[15] = biological target: 5-hydroxytryptamine receptor 7 (Homo sapiens) (UniProt P34969); conditions: Compound concentration 10.0 uM
[16] = biological target: Ephrin type-B receptor 4 (Homo sapiens) (UniProt P54760); conditions: Compound concentration 1000.0 nM
[17] = biological target: 5-hydroxytryptamine receptor 1A (Homo sapiens) (UniProt P08908); conditions: Compound concentration 10.0 uM
Sequence of 5-hydroxytryptamine receptor 1A (Homo sapiens) (P08908 whole entry): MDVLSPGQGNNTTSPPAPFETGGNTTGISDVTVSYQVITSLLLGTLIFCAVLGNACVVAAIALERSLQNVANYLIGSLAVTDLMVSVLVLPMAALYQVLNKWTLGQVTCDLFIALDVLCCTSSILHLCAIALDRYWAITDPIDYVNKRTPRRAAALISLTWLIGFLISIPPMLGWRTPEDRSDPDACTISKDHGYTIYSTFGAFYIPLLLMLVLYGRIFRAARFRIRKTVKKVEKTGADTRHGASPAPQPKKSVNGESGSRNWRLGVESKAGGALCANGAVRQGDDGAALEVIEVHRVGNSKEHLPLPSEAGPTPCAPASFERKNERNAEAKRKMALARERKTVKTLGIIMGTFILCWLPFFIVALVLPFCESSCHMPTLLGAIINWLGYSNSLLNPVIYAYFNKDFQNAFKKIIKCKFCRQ

[18] = biological target: Mitogen-activated protein kinase kinase kinase 4 (Homo sapiens) (UniProt Q9Y6R4); conditions: Compound concentration 1000.0 nM
[19] = biological target: NUAK family SNF1-like kinase 2 (Homo sapiens) (UniProt Q9H093); conditions: Compound concentration 1000.0 nM
[20] = biological target: GABA-A receptor; anion channel (Rattus norvegicus) (UniProt O09028+P15431+P18506+P18508+P19969+P20236+P23574+P23576+P28471+P28473+P30191+P62813+P63079+P63138+Q91ZM7+Q9ES14); conditions: Compound concentration 10.0 uM
[21] = test system: Phosphatidylinositol 4,5-bisphosphate 3-kinase catalytic subunit alpha isoform (Homo sapiens), P42336 [H1047L]; conditions: Compound concentration 1000.0 nM
[22] = biological target: Ribosomal protein S6 kinase alpha-1 (Homo sapiens) (UniProt Q15418); conditions: Compound concentration 1000.0 nM
[23] = biological target: Tyrosine-protein kinase Blk (Homo sapiens) (UniProt P51451); conditions: Compound concentration 1000.0 nM
[24] = biological target: Focal adhesion kinase 1 (Homo sapiens) (UniProt Q05397); conditions: Compound concentration 1000.0 nM
[25] = biological target: Bone morphogenetic protein receptor type-1B (Homo sapiens) (UniProt O00238); conditions: Compound concentration 1000.0 nM
[26] = biological target: Mitogen-activated protein kinase 3 (Homo sapiens) (UniProt P27361); conditions: Compound concentration 1000.0 nM
Sequence of Mitogen-activated protein kinase 3 (Homo sapiens) (P27361 whole entry): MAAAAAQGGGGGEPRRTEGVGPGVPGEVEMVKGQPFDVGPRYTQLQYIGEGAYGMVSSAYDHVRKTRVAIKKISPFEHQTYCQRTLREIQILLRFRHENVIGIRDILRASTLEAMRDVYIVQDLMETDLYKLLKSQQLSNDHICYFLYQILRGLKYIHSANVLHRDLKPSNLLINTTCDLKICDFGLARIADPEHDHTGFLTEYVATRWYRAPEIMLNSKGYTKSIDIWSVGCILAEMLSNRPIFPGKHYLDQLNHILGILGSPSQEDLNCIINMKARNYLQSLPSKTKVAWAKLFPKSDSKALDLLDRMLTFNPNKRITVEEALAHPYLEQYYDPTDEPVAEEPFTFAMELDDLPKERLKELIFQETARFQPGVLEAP

[27] = biological target: Dual specificity protein kinase CLK3 (Homo sapiens) (UniProt P49761); conditions: Compound concentration 1000.0 nM
[28] = biological target: Peripheral plasma membrane protein CASK (Homo sapiens) (UniProt O14936); conditions: Compound concentration 1000.0 nM
[29] = biological target: Tyrosine-protein kinase receptor Tie-1 (Homo sapiens) (UniProt P35590); conditions: Compound concentration 1000.0 nM
[30] = biological target: Serine/threonine-protein kinase 33 (Homo sapiens) (UniProt Q9BYT3); conditions: Compound concentration 1000.0 nM
Sequence of Serine/threonine-protein kinase 33 (Homo sapiens) (Q9BYT3 whole entry, looked up, canonical isoform): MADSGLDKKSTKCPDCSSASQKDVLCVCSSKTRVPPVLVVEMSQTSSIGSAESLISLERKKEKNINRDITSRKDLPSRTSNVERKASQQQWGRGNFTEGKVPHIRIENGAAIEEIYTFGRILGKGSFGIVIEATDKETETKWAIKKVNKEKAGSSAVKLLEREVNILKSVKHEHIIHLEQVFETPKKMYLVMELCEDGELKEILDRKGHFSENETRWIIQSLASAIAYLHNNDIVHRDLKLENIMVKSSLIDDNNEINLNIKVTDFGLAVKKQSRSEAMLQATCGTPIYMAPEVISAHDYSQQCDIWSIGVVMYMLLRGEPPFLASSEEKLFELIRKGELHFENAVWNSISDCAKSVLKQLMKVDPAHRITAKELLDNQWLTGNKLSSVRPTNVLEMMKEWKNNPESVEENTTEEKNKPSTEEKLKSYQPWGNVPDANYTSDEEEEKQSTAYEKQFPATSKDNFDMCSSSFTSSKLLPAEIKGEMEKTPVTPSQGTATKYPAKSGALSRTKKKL

[31] = test system: Phosphatidylinositol 4,5-bisphosphate 3-kinase catalytic subunit alpha isoform (Homo sapiens), P42336 [E545K]; conditions: Compound concentration 1000.0 nM
[32] = biological target: Angiopoietin-1 receptor (Homo sapiens) (UniProt Q02763); conditions: Compound concentration 1000.0 nM
[33] = biological target: Serine/threonine-protein kinase OSR1 (Homo sapiens) (UniProt O95747); conditions: Compound concentration 1000.0 nM
[34] = biological target: Casein kinase I isoform alpha-like (Homo sapiens) (UniProt Q8N752); conditions: Compound concentration 1000.0 nM
[35] = test system: Epidermal growth factor receptor (Homo sapiens), P00533 [UNDEFINED MUTATION]; conditions: Compound concentration 1000.0 nM
[36] = biological target: Mitogen-activated protein kinase 4 (Homo sapiens) (UniProt P31152); conditions: Compound concentration 1000.0 nM
[37] = biological target: 5-hydroxytryptamine receptor 1A (Homo sapiens, UniProt P08908); assay: GPCRScan assay: inhibition of 5-HT1A; parameters: radioligand conc. used [nm] 0.5 – 1.0, parental cells stable CHO
Sequence of 5-hydroxytryptamine receptor 1A (P08908 whole entry): as the sequence (P08908 whole entry) above

[38] = biological target: Dual specificity protein kinase TTK (Homo sapiens) (UniProt P33981); conditions: Compound concentration 1000.0 nM
[39] = biological target: Serine/threonine-protein kinase TBK1 (Homo sapiens) (UniProt Q9UHD2); conditions: Compound concentration 1000.0 nM
[40] = biological target: Rho-associated protein kinase 2 (Homo sapiens) (UniProt O75116); conditions: Compound concentration 1000.0 nM
[41] = biological target: Interleukin-1 receptor-associated kinase 3 (Homo sapiens) (UniProt Q9Y616); conditions: Compound concentration 1000.0 nM
[42] = test system: Tyrosine-protein kinase ABL1 (Homo sapiens), P00519 [F317I]; conditions: Compound concentration 1000.0 nM
[43] = test system: Tyrosine-protein kinase ABL1 (Homo sapiens), P00519 [M351T]; conditions: Compound concentration 1000.0 nM

Sequence of Activin receptor type-2B (Homo sapiens) (Q13705 whole entry): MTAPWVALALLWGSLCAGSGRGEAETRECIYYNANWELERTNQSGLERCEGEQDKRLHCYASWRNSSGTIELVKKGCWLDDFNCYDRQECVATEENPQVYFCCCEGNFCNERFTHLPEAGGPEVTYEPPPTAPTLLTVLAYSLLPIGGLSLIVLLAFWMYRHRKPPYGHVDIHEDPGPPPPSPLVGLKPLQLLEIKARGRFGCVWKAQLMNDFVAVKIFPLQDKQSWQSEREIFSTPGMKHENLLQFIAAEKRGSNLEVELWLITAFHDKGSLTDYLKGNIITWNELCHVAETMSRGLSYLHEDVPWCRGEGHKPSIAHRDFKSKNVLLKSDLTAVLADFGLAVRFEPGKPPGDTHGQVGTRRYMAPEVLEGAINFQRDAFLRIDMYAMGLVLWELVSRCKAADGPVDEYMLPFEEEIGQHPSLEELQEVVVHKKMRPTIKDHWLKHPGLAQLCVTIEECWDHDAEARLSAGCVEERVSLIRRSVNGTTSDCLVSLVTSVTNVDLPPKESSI

## CC(=O)C1=C(C)N(c2cccc(C(F)(F)F)c2)C(=O)N[C@@H]1c1ccc(C#N)nc1 [BAY-678]
[1]
  residual activity: 100%
[2]
  residual activity: 97.5%
[3]
  residual activity: 87.5%
[4]
  residual activity: 100%
[5]
  residual activity: 92.7%
[6]
  residual activity: 100%
[7]
  residual activity: 98.2%
[8]
  residual activity: 95.7%
[9]
  residual activity: 82.9%
[10]
  residual activity: 100%
[11]
  residual activity: 100%
[12]
  residual activity: 100%
[13]
  residual activity: 96.9%
[14]
  residual activity: 93.8%
[15]
  inhibition: 3.93%
[16]
  residual activity: 100%
[17]
  inhibition: 50%
[18]
  residual activity: 100%
[19]
  residual activity: 100%
[20]
  inhibition: 9.75%
[21]
  residual activity: 69%
[22]
  residual activity: 100%
[23]
  residual activity: 95.8%
[24]
  residual activity: 100%
[25]
  residual activity: 74.2%
[26]
  residual activity: 97.1%
[27]
  residual activity: 100%
[28]
  residual activity: 100%
[29]
  residual activity: 89.9%
[30]
  residual activity: 91.6%
[31]
  residual activity: 77.5%
[32]
  residual activity: 100%
[33]
  residual activity: 100%
[34]
  residual activity: 100%
[35]
  residual activity: 80.3%
[36]
  residual activity: 100%
[37]; read-out: Ki
  Ki: 4.98 µM
[37]; read-out: pKi (converted)
  Ki: 4.9 µM
[38]
  residual activity: 97.9%
[39]
  residual activity: 89.5%
[40]
  residual activity: 86.1%
[41]
  residual activity: 100%
[42]
  residual activity: 100%
[43]
  residual activity: 100%
